The OPERA property sets (Mansouri et al. 2018)

Conditions: for log10 BCF / log10 biotransformation half-life (days): fish

Structure (SMILES) | melting point | boiling point | further results
CC(C)C1NC(=O)NC1=O (centres undefined) | – | – | ready biodegradability: not readily biodegradable
COP(=S)(OC)Oc1c(Cl)cc(C)cc1Cl | 79 °C | – | log10 Koc (L/kg): 3.7; log10 vapour pressure (mmHg): -3.37; log10 BCF: 2.86; log10 biotransformation half-life (days): -0.11
COc1cc(N)ccc1C | 56.5 °C | 251 °C | –
NS(=O)(=O)c1ccc([N+](=O)[O-])cc1 | 179 °C | – | –
C=C(C)CCCCC | -90 °C | 119 °C | log10 vapour pressure (mmHg): 1.3
CCCCCCCCl | -69.5 °C | 159 °C | log10 vapour pressure (mmHg): 0.451
c1ccc2c3c(ccc2c1)-c1cccc2cccc-3c12 | 166 °C | – | log10 biodegradation half-life (days): 2.48
CC(CO)c1ccccc1 (centres undefined) | -13 °C | – | log10 vapour pressure (mmHg): -1.72
Cc1ccc2nc3sc(=O)sc3nc2c1 | 170 °C | – | log10 Koc (L/kg): 3.36; log10 vapour pressure (mmHg): -6.7
OC(c1ccccc1)(c1ccccc1)C1CCNCC1 | 160 °C | – | –
CCn1cc(C(=O)O)c(=O)c2cc(F)c(N3CCNCC3)nc21 | 222 °C | – | –
CCCCCCCC(=O)N(CCO)CCO | – | – | ready biodegradability: readily biodegradable
COc1ccc(C(C)=O)c(O)c1 | 52.5 °C | – | –
C=C(C)C1CCC(C)(O)CC1 (centres undefined) | 32.5 °C | 210 °C | –
c1ccc(-c2nc3ccccc3s2)cc1 | 115 °C | 371 °C | –
CCN(CC)N=O | – | 177 °C | log10 Henry constant (atm·m³/mol): -5.44; log10 vapour pressure (mmHg): -0.0655; ready biodegradability: not readily biodegradable
CCCCC#N | -96.2 °C | 141 °C | log10 Koa: 3.6; log10 vapour pressure (mmHg): 0.863
COCCCl | – | 92.5 °C | –
CCc1cc(CC)c(CC)c(CC)c1CC | – | 277 °C | –
CCOOCC | -70 °C | 65 °C | –
NCCCN | – | 140 °C | –
Fc1c(F)c(F)c(CBr)c(F)c1F | – | 174 °C | –
CC1SC(C)SC(C)S1 (centres undefined) | 101 °C | 246 °C | –
CC(=O)c1cccs1 | 10.5 °C | 214 °C | –
CN(C)CCN | – | 105 °C | ready biodegradability: not readily biodegradable

Structure (SMILES) | melting point | boiling point | further results
Cc1ccc2[nH]ccc2c1 | 60 °C | 267 °C | –
Cc1ccc2cccc(C)c2c1 | -13.9 °C | 263 °C | –
CC1=CCCC1 | -126 °C | 75.5 °C | –
C=C=CCCl | – | 88 °C | –
COC(=O)/C=C/C(C)=C\C=C\C(C)=C\C=C\C=C(C)\C=C\C=C(C)\C=C\C(=O)O | 198 °C | – | –
Clc1ccccc1C=C1c2ccccc2-c2ccccc21 | 69.5 °C | – | –
O=C1c2ccccc2C(=O)c2c(O)c(O)cc(O)c21 | 259 °C | – | –
CCCBr | -110 °C | 71.1 °C | log10 vapour pressure (mmHg): 2.04
CCN1CCNC(=O)C1=O | 108 °C | – | –
O=C1/C(=C2\Nc3ccccc3C2=O)Nc2ccccc21 | – | – | ready biodegradability: not readily biodegradable
C[C@H](CCC(=O)NCC(=O)O)[C@H]1CC[C@H]2[C@@H]3[C@H](O)C[C@@H]4C[C@H](O)CC[C@]4(C)[C@H]3C[C@H](O)[C@]12C | 166 °C | – | –
COc1ccc(O)cc1 | 57 °C | 243 °C | ready biodegradability: readily biodegradable
C=CC(OCC)OCC | – | 124 °C | –
CCCCCCCCCC(=O)OCC | -20 °C | 242 °C | –
O=C(O)CC[N+](=O)[O-] | 62 °C | – | –
O=C(O)C(Br)CBr (centres undefined) | 66.5 °C | – | –
Nc1ccc(Br)cc1Br | 79.5 °C | – | –
C=CCC1(C2C=CCCC2)C(=O)NC(=S)NC1=O (centres undefined) | 149 °C | – | –
Cc1ccc(Cl)c(OCC(O)CNC(C)(C)C)c1 (centres undefined) | 221 °C | – | –
CC1COC(=O)O1 (centres undefined) | -48.8 °C | 242 °C | log10 vapour pressure (mmHg): -1.35; ready biodegradability: readily biodegradable
C=C(CCCC)CCCCCCCC | – | – | log10 biotransformation half-life (days): 0.88
CCCC#N | -112 °C | 118 °C | log10 Henry constant (atm·m³/mol): -4.28; log10 Koa: 3.12; log10 vapour pressure (mmHg): 1.29
CCCCOC(=O)CCCCCCCCC(=O)OCCCC | -10 °C | 344 °C | log10 vapour pressure (mmHg): -5.33
CCC(C)(CC)C(C)(C)C | -42.5 °C | 170 °C | –
COc1ccc2c(OC)c3ccoc3nc2c1OC | 177 °C | – | –

Structure (SMILES) | melting point | boiling point | further results
OCc1ccc2ccccc2c1 | 81.3 °C | – | –
COC(=O)CCCCC(=O)OC | 10.3 °C | – | log10 vapour pressure (mmHg): -1.22
O=C(Cl)c1ccco1 | -2 °C | 173 °C | –
CCCCCCCCCCCCCCCCCCCCCCCCCCCCCCCCCC | 72.6 °C | 483 °C | log10 biodegradation half-life (days): 2.58; ready biodegradability: readily biodegradable
Clc1ccc2c(c1)Oc1cc(Cl)c(Cl)cc1O2 | 162 °C | – | log10 Koa: 9.14; log10 vapour pressure (mmHg): -7.05
Clc1cccc(-c2ccccc2Cl)c1 | – | – | log10 Henry constant (atm·m³/mol): -3.6
CN(C)CC/C=C1\c2ccccc2Sc2ccc(Cl)cc21 | 97.5 °C | – | –
C1C2CC3CC1CC(C2)C3 | 205 °C | – | log10 biodegradation half-life (days): 3
CN1CCN(C)C1=O | 8.2 °C | 221 °C | –
Cl/C=C/Cl | – | – | ready biodegradability: not readily biodegradable
CC(O)CC(C)(C)O (centres undefined) | -50 °C | 198 °C | log10 vapour pressure (mmHg): -1.89; ready biodegradability: readily biodegradable
CC[C@H](CC[C@@H](C)[C@H]1CC[C@H]2C3=CC=C4C[C@@H](O)CC[C@]4(C)[C@H]3CC[C@]12C)C(C)C | 144 °C | – | –
Cc1ccc2ccc(=O)oc2c1 | 128 °C | – | –
CC(C)(Br)C(=O)O | 48.5 °C | 199 °C | –
O=C(OC1CCCCC1)C(=O)OC1CCCCC1 | 43.5 °C | – | –
CCCCC1C(=O)NC(=O)N(C2CCCCC2)C1=O (centres undefined) | 84 °C | – | –
N#CC(CCc1ccc(Cl)cc1)(Cn1cncn1)c1ccccc1 (centres undefined) | 125 °C | – | log10 vapour pressure (mmHg): -7.43
CCCCC(CC)CNC1CCCCC1 (centres undefined) | – | 270 °C | –
CCC(C)(C)O | -9.1 °C | 102 °C | log10 Henry constant (atm·m³/mol): -4.86; log10 vapour pressure (mmHg): 1.22; ready biodegradability: not readily biodegradable
O=CC(=O)O | – | – | ready biodegradability: readily biodegradable
O=S(=O)(Cl)c1cccs1 | 28 °C | – | –
CCO[SiH](OCC)OCC | – | 134 °C | –
NC(=S)Nc1ccccc1Cl | 146 °C | – | –
ClCOCCl | -41.5 °C | 106 °C | log10 vapour pressure (mmHg): 1.47
CN(C)c1nc(=O)n(C2CCCCC2)c(=O)n1C | 116 °C | – | log10 Koc (L/kg): 1.73; log10 vapour pressure (mmHg): -6.65

Structure (SMILES) | melting point | boiling point | further results
Clc1ccc2ccccc2c1 | 61 °C | 256 °C | log10 Henry constant (atm·m³/mol): -3.49; log10 Koa: 5.8; log10 vapour pressure (mmHg): -1.91; log10 BCF: 3.63
O=C(O)CN(CCN(CC(=O)O)CC(=O)O)CC(=O)O | – | – | log10 vapour pressure (mmHg): -11.8; ready biodegradability: not readily biodegradable
Nc1ccn([C@@H]2O[C@H](COP(=O)(O)O)[C@@H](O)[C@@H]2O)c(=O)n1 | 233 °C | – | –
COc1c(N)cccc1[N+](=O)[O-] | – | – | ready biodegradability: not readily biodegradable
CCCCCCCCC(=O)O | 12.3 °C | 254 °C | log10 vapour pressure (mmHg): -2.78; ready biodegradability: readily biodegradable
Oc1cc(O)cc(Cl)c1 | 118 °C | – | –
CCCCO[N+](=O)[O-] | – | 133 °C | log10 Henry constant (atm·m³/mol): -2.81; log10 vapour pressure (mmHg): 0.919
OC[C@H]1O[C@H](O[C@H]2O[C@H](CO)[C@@H](O)[C@H](O)[C@H]2O)[C@H](O)[C@@H](O)[C@@H]1O | 203 °C | – | –
CC(C)(C)CBr | – | 106 °C | –
Oc1ccc(Cl)cc1 | 42.7 °C | 220 °C | log10 vapour pressure (mmHg): -1.05; ready biodegradability: not readily biodegradable; log10 BCF: 1.48; log10 biotransformation half-life (days): -0.41
CC1CCCC(C)(C)C1=O (centres undefined) | -31.8 °C | 178 °C | –
CCCCCCCCCCCCCCCCc1ccccc1 | 27 °C | 385 °C | log10 vapour pressure (mmHg): -5.45
NNC(=O)c1ccc(N)cc1 | 226 °C | – | –
C=CC(C)C(C)C (centres undefined) | – | 80.8 °C | –
FC(F)=C(F)C(F)(F)C(F)(F)C(F)(F)C(F)(F)F | – | 57 °C | –
Nc1ccc(O)cc1 | 188 °C | 284 °C | log10 vapour pressure (mmHg): -4.4; ready biodegradability: readily biodegradable
CC(C)(O)CCl | -20 °C | 128 °C | –
Nc1ccc(S(=O)(=O)F)cc1 | 68.5 °C | – | –
COc1cc2c(c(OC)c1OC)-c1ccc(SC)c(=O)cc1[C@@H](NC(C)=O)CC2 | 193 °C | – | –
Clc1ccc(Br)cc1 | 68 °C | 196 °C | log10 vapour pressure (mmHg): -0.588
CC(C)(C)C(=O)Cl | – | 107 °C | –
O=C(C=NO)c1ccccc1 | 129 °C | – | –
CC(C)COC(=O)CC(C)C | – | 168 °C | log10 vapour pressure (mmHg): 0.266
CCCCOC(=O)COc1ccc(Cl)cc1Cl | – | – | log10 vapour pressure (mmHg): -4.21
CCCCCCc1cccc2ccccc12 | -18 °C | 322 °C | –

Structure (SMILES) | melting point | boiling point | further results
CC1(OO)CCC2CC1C2(C)C (centres undefined) | – | – | ready biodegradability: not readily biodegradable
O=C(O)Cc1ccccc1CC(=O)O | 151 °C | – | –
C[Si]1(C)N[Si](C)(C)N[Si](C)(C)N[Si](C)(C)N1 | 97.5 °C | 225 °C | –
CNC(=O)C(C)(C(C)C)C(C)C | 60 °C | – | –
Cc1cc(C)c2c(c1)CC(C)(C)CC2 | – | – | log10 biotransformation half-life (days): 0.32
Sc1ccc(Cl)cc1 | 61 °C | 206 °C | –
O=Cc1ccc2c(c1)OCO2 | 37 °C | 263 °C | log10 vapour pressure (mmHg): -2; ready biodegradability: readily biodegradable
CCCCCCCCCCCCCCCCCCBr | 28.2 °C | – | log10 vapour pressure (mmHg): -5.23
C#CC(C)(C)NC(=O)c1ccc(OC)cc1 | – | – | log10 Koc (L/kg): 1.83
O=[N+]([O-])c1ccc(/C=C/c2cccc(CO)n2)o1 | 170 °C | – | –
CCCC(O)CC/C=C/C=C/C#CC#C/C=C/CO (centres undefined) | 87 °C | – | –
CNC(=O)Oc1ccc(N(C)C)c(C)c1 | 93.5 °C | – | log10 Koc (L/kg): 2; ready biodegradability: readily biodegradable
OCCN(CCO)c1nc(N2CCCCC2)c2nc(N(CCO)CCO)nc(N3CCCCC3)c2n1 | 163 °C | – | –
COc1ccc2c(c1)c(CC(=O)O)c(C)n2C(=O)/C=C/c1ccccc1 | 170 °C | – | –
Cc1nccnc1C | – | 156 °C | –
O=[N+]([O-])c1ccc(O)cc1 | 114 °C | 279 °C | log10 Henry constant (atm·m³/mol): -9.38; log10 Koc (L/kg): 2.37; log10 vapour pressure (mmHg): -4.01; ready biodegradability: not readily biodegradable; log10 BCF: 0.71
C=COCCCCCCCCCCCCCCCC | 16 °C | – | –
N#CSCCl | – | 185 °C | –
CCCCCCCOC(C)=O | -50.2 °C | 193 °C | –
COc1cc(OC)n2nc(S(=O)(=O)Nc3c(Cl)ccc(C)c3Cl)nc2n1 | 211 °C | – | –
COc1ccc([N+](=O)[O-])c(OC)c1 | 76.5 °C | – | –
CCCCCOC(=O)CCC | -73.2 °C | 186 °C | –
CCOC(=O)c1ccccc1Cl | – | 243 °C | –
CCCCCC(N)=O | 101 °C | 255 °C | –
CCOC(C(=O)c1ccccc1)c1ccccc1 (centres undefined) | 62 °C | – | –
